Assay results reported in patent publication US10648917B2, “Luminescent compositions and applications thereof” (THE PENN STATE RESEARCH FOUNDATION, priority 2015, dated 2020).

How the values were obtained:
[1] = Photostability under continuous excitation for 3 hours; type: physicochemical; conditions: for photobleaching relative to Fluorescein and Rhodamine B: 3 hours continuous excitation
Procedure: Fluorescence spectra were recorded by a Horiba FluoroMax-4 spectrofluorometer. All samples were measured at a concentration corresponding to an optical density of 0.1 in water and a slit size of 1 nm by 1 nm unless specified. Quantum yields were also determined on same spectrofluorometer by using a Quantum-φ integration sphere at samples' maximum excitation wavelength and at an increment of 0.3 nm. Photostability studies were done by continuously exciting samples at their maximum excitation wavelength and monitoring at the maximum emission wavelength.
Fluorescence spectra were recorded on a Horiba FluoroMax-4 spectrofluorometer (Horiba Scientific, Edison N.J.). All polymer and samples were characterized at a concentration of 2 wt % in 1,4-dioxane and a slit size of 1 nm by 1 nm unless otherwise specified. The fluorescence properties of small molecule dyes were also measure in 2 wt % DI water solutions at same conditions as polymer solutions. BPLPs were also degraded in 1M K2CO3 solution at 37° C. for 24 hours and then neutralized with 1N HCl solution to pH7. The resulting degradation solutions were subject to further PL characterizations. Quantum yields were also determined on the same spectrofluorometer by using a Quantum-φ integration sphere (Horiba Scientific, Edison N.J.) at the same concentration and slit size with the blank solvent as the reference. Photostability of small molecules and polymers were determined by monitoring the emission intensity decay at their max. Excitation and emission wavelengths over 3 hours of continuous lumination in the spectrofluorometer.
Photostability of CFDs was characterized thereafter, since traditional organic dyes suffer from photobleaching. Various CFDs were tested under their maximum excitation and emission wavelengths for 3 hours, and the photoluminescence was normalized to the initial intensity.

[2] = pH dependence of fluorescence / pH sensing; type: physicochemical
Procedure: Absorbance Spectra were recorded on Tecan Infinite M200 Pro UV-vis spectroscopy, and fluorescence spectra were recorded on Horiba FluoroMax-4 fluorospectroscopy at concentrations below 0.1 O.D. unless otherwise indicated. Quantum Yields were measured on the Quantum φ Integrating Sphere accessory to the FluoroMax-4, while lifetime measurements were determined through the Time-Correlation Single Photon Counting (TCSPC) accessory to the FluroMax-4. TCSPC was utilized in conjunction with NanoLED pulsed diode light source with peak excitation wavelength at 352 nm and at 10,000 counts peak preset. Emission was collected at the fluorescence λmax, unless otherwise indicated. For all pH-dependence experiments, sample pH was adjusted with sulfuric acid or sodium hydroxide. For all chloride-dependent quenching experiments, magnesium chloride hexahydrate (Sigma Aldrich) was used.
pH Dependence of CA-Cys Fluorescence. Of all solvent and environmental factors that affect fluorescence, CA-Cys appeared to display the greatest sensitivity to changes in pH. […] From a detailed analysis of FIG. 13, four correlations were observed. Fluorescence properties of CA-Cys were invariable from high basicity to a pH of 4.84, from which the excitation λmax began to red-shift from 350 nm, emission λmax began to red-shift from 418 nm, maximum fluorescence intensity began to decrease, and quantum yield began to decrease. As acidity was increased, all four trends continued until pH 2.44, from which the excitation λmax plateaued at 365 nm, emission plateaued at 445 nm, and fluorescence intensity and quantum yield both experienced a short local plateau. Similarly, Stokes shift increased from 67 nm to 80 nm in high acidity. Lastly, absorbance λmax shifted similarly to that of the maximum excitation, while absorbance intensities remained relatively constant. […] All of these patterns were reminiscent of a pH-dependent equilibrium, thus the predominant mechanism of intensity quenching and bathochromic shifts was hypothesized to be attributed to changes in protolytic equilibria. The noticeably linear quenching of intensities past pH 1.63 is discussed with respect to lifetime analysis herein below.
There is a predictable, linear increase in intensity from pH 3 to 4.5. Furthermore, emission collected at a fixed 445 nm is shown in FIG. 15 to be an isobestic point where intensities are independent of pH (up to pH 1), which should greatly improve the functionality of CA-Cys as a pH sensor. In other words, utilizing 445 nm as a dual-wavelength reference point allows for background subtraction and normalization with respect to absorbance or concentration. […] Furthermore, I418 nm/I445 nm increases linearly in the region of pH 3 to 4.5 for accurate determination of pH within this region, plotted and fitted with an R^2 value of 0.982. To sum up, I418 nm/I445 nm values near 1.6 indicate pH above 4.5, values below 0.7 indicate highly acidic environments below pH 3, while any intermediate I418 nm/I445 nm values can determine the exact pH with good accuracy. It is important to note that CA-Cys fluorescence is in accordance with Kasha's rule, i.e. fluorescence occurs from the lowest excited state, S1→S0, thus the emission λmax is independent of the excitation wavelength, and a fluorescence excitation scan at a fixed emission of 418 nm or 445 nm would provide the maximum fluorescence intensity for that emission wavelength. Also of importance is the reliable range of the isobestic point, which is broken at high acidities (noticeably below pH 1) due to dynamic quenching effects.

pH of sharp colorimetric transition [2] | photostability ([1]; FIG. 19) | luminescence lost ([1]; after 3 hours continuous excitation) | fluorescence remaining ([1]; after continuous UV excitation for 3 hours) [%] | emission transition (pH) [2] | isobestic absorption point (pH) [2] | I418 nm/I445 nm ratio ([2]; acidic range) | I418 nm/I445 nm ratio ([2]; basic range) | Stokes shift ([2]; before increase (basic)) [nm] | emission λmax plateau ([2]; from pH 2.44) [nm] | excitation λmax plateau ([2]; from pH 2.44) [nm] | quenching of emission intensity at fixed 418 nm ([2]; from pH 4.5-11 to pH 1-3) | emission λmax ([2]; high basicity to pH 4.84) [nm] | excitation λmax ([2]; high basicity to pH 4.84) [nm] | Stokes shift ([2]; in high acidity) [nm] | quenching of overall fluorescence ([2]; upon protonation of first carboxyl group) [fold] | Structure (SMILES) | photobleaching relative to Fluorescein and Rhodamine B [1]
9.75 |  |  |  |  |  |  |  |  |  |  |  |  |  |  |  | CC(C(=O)O)N1C(=O)C=C(C(=O)O)CC1=O (stereo not drawn) [CA-Ala] | photobleaching on par with Fluorescein but more resistant than Rhodamine B
 | strong photostability | less than 3% | 95 | 3.27 | 3.35 | 0.7 | 1.6 | 67 | 445 | 365 | roughly 2.25 fold | 418 | 350 | 80 | 1.37 | O=C(O)c1cc2n(c(=O)c1)C(C(=O)O)CS2 (stereo not drawn) [CA-Cys] | less stable
